pIC50: −log10 of the molar value.
Key:
[1] = test system: bone fracture pain, paw withdrawal threshold; experiment: Mouse bone fracture model, intraperitoneal; type: in vivo; conditions: for effect on PWT in mouse fracture pain model: IP, morphine 1, 2, 3, 5 mg/kg, XT-203 6, 10, 18, 30 mg/kg, (+)-NTX 6, 18, 30, 60 mg/kg, dose-dependent; for adverse effects during observation: mouse fracture model, all dose groups
Text: Each group had n=10 mice.

Mouse hepatocytes = experiment: Hepatocyte elimination of parent compound
[2] = test system: CCI neuropathic pain (mechanical allodynia); experiment: Rat chronic constriction injury (CCI) neuropathic pain model, SC dosing, von Frey testing (Example 1); type: in vivo
Procedure: Pathogen-free adult male Sprague-Dawley rats (300-375 g; Harlan Labs, Madison, Wis.) were used in all experiments. Rats were housed in temperature (23+/−3° C.) and light (12 hour:12 hour, light:dark cycle; lights on at 0700) controlled rooms with standard rodent chow and water available ad libitum.
Chronic Constriction Injury (CCI) model: Neuropathic pain was induced using the CCI model of partial sciatic nerve injury (see, e.g., Bennett and Xie, […]). CCI was performed at the mid-thigh level of the left hindleg as previously described in Milligan, et al., Eur. J. Neuroscience, 20:2294-2302 (2004). In brief, four sterile chromic gut sutures (cuticular 4-0 chromic gut, FS-2; Ethicon, Somerville, N.J., USA) were loosely tied around the gently isolated sciatic nerve. Drug testing was delayed until 10-14 days after surgery to ensure that neuropathic pain was well established prior to the initiation of drug delivery.
XT-203 CCI SC: Rats (10/group) were subjected to CCI neuropathic pain model surgery. After the pain state was established, they were dosed 3× per day for 5 days with XT-203 or a positive control (gabapentin) dose. Behavior testing for pain responses by von Frey testing was used to establish pain thresholds in the affected hind paw. Because dosage was 3×/day, behavior testing was performed after the first and second dose of day 1 dosing (1.1, 1.2) and after the first and second dose of day 5 dosing (5.1, 5.2). […]
Von Frey Test for Mechanical Allodynia: Rats received at least three 60 min habituations to the test environment prior to behavioral testing. Response thresholds to calibrated light pressure stimuli applied to the plantar surface of the paws was measured using the von Frey test. […] Briefly, rats were first assessed for baseline response thresholds (average of three consecutive withdrawal assessments) from each paw at 15 min intervals, and the average response threshold from both feet was calculated. […] Allodynia was assessed pre- and post-drug delivery.

hERG = hERG (Homo sapiens, UniProt Q12809); experiment: hERG inhibition
hERG, sequence (Q12809 whole entry): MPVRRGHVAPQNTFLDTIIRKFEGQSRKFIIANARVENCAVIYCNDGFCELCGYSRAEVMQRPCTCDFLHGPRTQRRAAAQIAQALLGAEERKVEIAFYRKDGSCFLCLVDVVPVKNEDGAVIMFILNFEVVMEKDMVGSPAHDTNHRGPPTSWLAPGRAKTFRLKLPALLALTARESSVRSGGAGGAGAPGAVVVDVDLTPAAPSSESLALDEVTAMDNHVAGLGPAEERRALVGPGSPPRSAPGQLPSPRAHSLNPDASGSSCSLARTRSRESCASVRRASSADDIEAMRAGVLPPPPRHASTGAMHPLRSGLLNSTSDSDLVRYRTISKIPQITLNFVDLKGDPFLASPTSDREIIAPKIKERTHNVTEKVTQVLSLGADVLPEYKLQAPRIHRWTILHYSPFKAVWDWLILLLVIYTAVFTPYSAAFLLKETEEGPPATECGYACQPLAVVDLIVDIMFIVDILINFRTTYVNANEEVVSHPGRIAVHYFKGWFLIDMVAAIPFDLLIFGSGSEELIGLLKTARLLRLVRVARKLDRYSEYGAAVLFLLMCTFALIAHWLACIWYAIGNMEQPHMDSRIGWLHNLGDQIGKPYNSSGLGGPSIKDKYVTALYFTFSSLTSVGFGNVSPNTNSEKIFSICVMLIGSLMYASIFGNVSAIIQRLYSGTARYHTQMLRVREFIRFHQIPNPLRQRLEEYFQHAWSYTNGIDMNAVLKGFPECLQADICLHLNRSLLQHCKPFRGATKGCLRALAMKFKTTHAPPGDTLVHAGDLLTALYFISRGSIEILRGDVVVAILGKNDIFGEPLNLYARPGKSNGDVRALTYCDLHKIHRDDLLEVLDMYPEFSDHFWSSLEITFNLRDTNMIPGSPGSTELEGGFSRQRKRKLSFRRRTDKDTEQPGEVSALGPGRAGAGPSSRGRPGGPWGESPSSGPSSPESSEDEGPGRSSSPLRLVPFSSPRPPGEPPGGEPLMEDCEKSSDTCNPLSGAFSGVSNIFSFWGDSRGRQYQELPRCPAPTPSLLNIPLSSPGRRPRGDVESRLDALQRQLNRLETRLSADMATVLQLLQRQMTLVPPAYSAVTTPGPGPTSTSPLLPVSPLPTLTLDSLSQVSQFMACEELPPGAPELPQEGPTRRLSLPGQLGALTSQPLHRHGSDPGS

[3] = Hepatocyte elimination of parent compound, spread across species; type: in vitro ADME; conditions: mouse, rat, dog, monkey, human, hepatocytes; lowest to highest species value; read-out: range of hepatocyte elimination half-life values across species
Procedure: Hepatocyte Elimination: (+)-NTX, AK-17 and XT-203 were incubated with cultured hepatocytes from the species listed in FIG. 9 and Table 4, and samples of the culture supernatant were collected over time. Samples were concentrated by nitrogen drying followed by reconstitution with 40% methanol for LC/MS analysis The data points were analyzed using the WinNonLin pharmacokinetics software package, and a half-life was determined that describes the rate of parent elimination. […].
(§1) In addition to the animal studies presented above in Examples 1-9, the results of in vitro testing of several of the compounds (i.e., XT-203, XT-204, and XT-206 through XT-217) are shown in Table 5 and Table 6. […]. Nine additional compounds had two or fewer off-target hits in the screening. […] These compounds spanned all of the tested N-modification classes. […]. Thus, the medicinal chemistry approach taken in this series of fluorinated compounds can yield low off-target activity and longer metabolic lifetime while preserving TLR4 antagonism. It is appreciated that further development of compounds in this class, using techniques known to those skilled in the art, may yield additional compounds with desirable pharmacologic and toxicologic characteristics.

in vitro [4] = conditions: mouse, hepatocytes
in vitro [5] = conditions: monkey, cultured hepatocytes
Human hepatocytes = experiment: Hepatocyte elimination of parent compound; conditions: hepatocytes
in vitro [6] = conditions: dog, cultured hepatocytes
[7] = test system: acute nociceptive pain (paw incision); experiment: Rat paw incision model, subcutaneous (Study R049); conditions: 30 mg/kg SC TID, five days; morphine 3 mg/kg as positive control
Adrenergic α2A = target: T1, Adrenergic α2A (Homo sapiens, UniProt P08913); experiment: Off-target screening; type: binding
T1 sequence (P08913 1-465): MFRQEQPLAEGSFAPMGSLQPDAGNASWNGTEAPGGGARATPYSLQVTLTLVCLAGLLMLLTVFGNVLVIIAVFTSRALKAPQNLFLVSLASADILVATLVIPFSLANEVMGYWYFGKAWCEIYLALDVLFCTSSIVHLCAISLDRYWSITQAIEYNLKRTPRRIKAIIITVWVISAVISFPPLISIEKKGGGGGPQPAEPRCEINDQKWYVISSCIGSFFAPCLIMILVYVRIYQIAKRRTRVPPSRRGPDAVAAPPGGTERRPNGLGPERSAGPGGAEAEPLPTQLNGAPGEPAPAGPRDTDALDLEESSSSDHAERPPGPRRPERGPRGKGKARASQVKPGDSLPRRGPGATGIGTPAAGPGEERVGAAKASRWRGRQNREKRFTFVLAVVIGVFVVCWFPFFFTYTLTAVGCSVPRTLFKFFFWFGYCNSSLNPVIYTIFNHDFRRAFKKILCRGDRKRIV
Text: as §1

Sodium channel site 2 = experiment: Off-target screening; type: binding
Text: as §1

in vitro [8] = conditions: human, cultured hepatocytes

Structure (SMILES) | effect on PWT in mouse fracture pain model [1] | adverse effects during observation [1] | glucuronidation of parent compound (Mouse hepatocytes; mouse hepatocytes, compared with XT-203) | effect on pain threshold (von Frey), data not shown ([2]; SC) | Parent compound hepatocyte elimination half-life, Mouse (Mouse hepatocytes; cultured mouse hepatocytes) | pIC50 (hERG) | half-life [3] | half-life (in vitro [4]) | half-life (in vitro [5]) | half-life in human hepatocytes compared to (+)-NTX and AK-17 (Human hepatocytes) | half-life (in vitro [6]) | effect on pain threshold (von Frey), day 1 dosing ([2]; XT-203 19 mg/kg SC 3x per day, FIG. 5A) | effect on pain threshold (von Frey), day 5 testing ([2]; XT-203 19 mg/kg SC 3x per day, FIG. 5B) | efficacy in rat paw incision model at the high dose [7] | % Inhibition at 10 μM, Adrenergic α2A (Adrenergic α2A) | % Inhibition at 10 μM, Adrenergic α2A (Adrenergic α2A; listed as XT 203, 10 µM) | inhibition at 1 µM (Adrenergic α2A; read-out: % inhibition at 1 μM (retest), Adrenergic α2A, 1 μM) | % Inhibition at 10 μM, Sodium channel site 2 (Sodium channel site 2; 10 µM) | % Inhibition at 10 μM, Sodium channel site 2 (Sodium channel site 2; listed as XT 203, 10 µM) | half-life (in vitro [8])
O=C1CC[C@]2(O)[C@@H]3Cc4ccc(O)c5c4[C@]2(CCN3CC2CC2)[C@@H]1O5 [(+)-naltrexone, reference compound] | increased the PWT | No significant adverse effects | significantly higher glucuronidation | not effective | – | – | – | – | – | – | – | – | – | – | – | – | – | – | – | –
COc1ccc2c3c1O[C@@H]1C(F)CCC4[C@H](C2)N(CC2CC2)CC[C@]341 (stereo partly shown) [XT-203] | increased the PWT | No significant adverse effects | – | – | 26.28 min | < 4.00 | 13.2 to 54.3 min | ~27 min | 13.7 min | enhanced half-life | 24.3 min | minimal effect | substantial effect | significant efficacy | 99% | 64% | < 50% | 64% | 54% | 54.3 min
